Columns and labels:
[1] = target: PCP receptor; assay: PCP receptor binding against 3H-MK-801 (Example 5, Table 1); conditions: vs. 3H-MK-801; ± sem (n)
Method: The PCP receptor binding properties of various compounds of the invention against ^3 H-5-methyl-10,11-dihydro-5H-dibenzo[a,d]cycloheptene-5,10-imine (^3 H-MK-801) were determined.

[2] = system: rat hippocampal cells; assay: In vitro neurotoxicity assay: protection against glutamate, Trypan Blue survival count (Example 7); type: cell-based; conditions: 5 uM, glutamate 0-1000 uM, 1 uM glycine
Method: In the cytotoxicity studies, cultured mammalian neurons expressing EAA receptors are exposed in vitro to glutamate and the particular compound under investigation. The survival percentage of cells indicates the ability of the compound to protect against glutamate-induced neuronal death.
Dissociated rat hippocampal cultures were prepared using a modification of the method of Huettner and Baughman [Huettner, J. E. and Baugham, R. W., J. Neurosci. 6:3044-3060 (1986)]. The cortices were removed from 1-3 day post-natal rats (Sprague-Dawley) that had been anesthetized with chloral hydrate, and the hippocampi were dissected out and placed in Cl^- free dissociation medium supplemented with 1 mM kynurenic acid and 10 mM MgSO4 (Choi, D. W., J. Neurosci. 7:369-379 (1987)). The hippocampi were washed in the dissociation medium, then incubated for 2×20 minutes at 37° C. in dissociation medium containing 10 units/ml of Papain (Worthington). After the enzyme treatment, the tissue was incubated for three 5-minute periods at 37° C. with 10 mg/ml trypsin inhibitor (Sigma type II-0).
The cells were dissociated by trituration in growth medium and plated as 0.15 ml droplets of cell suspension onto the center of 35 mm Primaria (Falcon) dishes that had been stamped with a labeled 26×26 grid of approximately 0.64 cm^2 total area using a Mecanex BB form (WPI, New Haven, Conn.) and coated with poly-D-lysine and laminin (Collaborative Research). The cell density was between 2.5 and 4.0×10^5 cells per dish. The growth medium was Eagles minimum essential media (MEM, Earle's salts) supplemented with 5% fetal bovine serum (CCL), 5% defined supplemented calf serum (HyClone), 50 mM glucose, 50 units/ml penicillin/streptomycin and MITO+serum extender (Collaborative Research). The cells were maintained at 37° C. in a humidified 4.5% CO2 atmosphere. […]
Before treatment, sister cultures were examined under phase-contrast microscopy to ensure that the cultures were of a similar density. […] The cultures were washed three times and the surviving cells counted in the grid area using phase contrast microscopy. […]

[3] = target: PCP receptor; assay: PCP receptor affinity of IDDC analogs vs. [3H]MK-801 in rat brain membrane (Example 10, Table 2); conditions: read-out: PCP Receptor Affinity IC50 in Rat Brain Membrane vs. [3H]MK-801, MEAN
[4] = system: NMDA receptor-ion channel complex; assay: Whole-cell patch clamp: block of NMDA-induced currents on cultured rat hippocampal neurons (Example 6); type: cell-based; conditions: rat hippocampal neurons, compared with MK-801
Method: In the electrophysiological studies the compounds are evaluated with respect to their ability to block the ion channel of the NMDA receptor channel complex and thereby inhibit Ca^2+ and Na^+ ion flow into the nerve cell. Initially, the ion channels are opened by activating the NMDA receptor. Ion flow is determined by measuring the passage of electrical current, i.e., a use-dependent decrease in electrical current indicates blocking of the ion channel due to binding of a ligand at a site within the channel.
Hippocampal neurons were obtained from the CA1 region of the hippocampus from 1-3 day-old-newborn rats (Long-Evans). Small blocks of tissue ([…]1mm^3) were incubated in papain (20 units ml^-1; Worthington-Cooper) for 30 minutes. The tissue was dissociated into a single cell suspension by trituration with a fire-polished Pasteur pipette in complete growth medium (Earle's MEM, 20 mM glucose, 50 units/ml penicillin/streptomycin, 5% heat-inactivated fetal calf serum, Serum Extender from Collaborative Research) containing 2.5 mg/ml bovine serum albumin and 2.5 mg/ml trypsin inhibitor (Sigma). The cells were plated onto glass coverslips coated with collagen/poly-D-lysine. Cultures were fed every 3 days by replacing haft the volume of medium. Arabinosylcytosine (5×10^-6 M) was added to the cultures for 1 or 2 days during the first week after plating to suppress the proliferation of non-neuronal cells.
All electrophysiology experiments were performed with the whole-cell mode of patch clamp recording [Hamill, O. D., Marty, A., Neher, E., Sakman, B., and Sigworth, F. J., Pflugers Arch. 391:85-100 (1981)] from neurons grown for 1-3 weeks in culture. Agonists and agonist/antagonist combinations were applied by a U-tube mol (Fenwick et al, J. Physiol. 331:577-597 (1982)) to neurons in whole-cell experiments. The external solution contained (in mM) NaCl 140, KCl 3.5, CaCl2 1, glucose 5, picrotoxinin 0.02, tetrodotoxin (TTX) 5×10^-4, and N-2-hydroxyethyl-piperazine-N'-2-ethanesulfonic acid (HEPES) 10. The pH of this solution was adjusted to 7.4 with NaOH. The internal (patch electrode) solution contained (mM) Cs-methanesulfonate 120, CsCl 10, ethyleneglycol-bis-(β-aminoethylether)-N,N,N',N'-tetraacetic acid (EGTA) 10, HEPES 10 (pH adjusted to 7.0 with CsOH). Membrane current was filtered at 4000 Hz (-3dB; 8-pole Bessel) and recorded on magnetic tape for later analysis. Experiments were performed at room temperature (20°-25° C.). [Sources of chemicals: N-methyl-D-aspartate, Cambridge Research Biochemicals; pirotoxinin, Sigma Chemical Company; salts for recording solutions, Aldrich (Gold Label) or Alfa (Puratronic). [^3 H]Kainate and [3H]CPP and [^3 H]AMPA were purchased from Dupont/NEN (Boston, Mass.)].
Repetitive applications (every 30 s) to the same cell produced currents which varied less than 5% over a period of at least 30 minutes.

[5] = system: lesions caused by NMDA injection; assay: In vivo neurotoxicity assay: protection against lesions caused by cerebral NMDA injection (Example 8); conditions: about 0.30 to 60 μMol/kg, intraperitoneal, 15 minutes following cerebral NMDA injection
Source text: In the in vivo neurotoxicity studies, the experimental model of McDonald, D. W., et al., (In: Sigma and Phencyclidine-like Compounds as Molecular Probes in Biology, Ed. Domino, E. F., and Kamenka, J.-M., pp. 697-707 (1988), NPP Books, Ann Arbor, Mich.) may be employed. In this model, NMDA injection into one cerebral hemisphere causes injury which resembles the lesion produced by hypoxia-ischemia. The ability of compounds to limit the NMDA-induced lesion is a measure of their neuroprotective properties; since the compounds may be administered intraperitoneally, the model can also provide information about a compound's ability to cross the blood-brain barrier.
The experimental model of McDonald, J. W., et al., supra, was employed with the single alteration in protocol of an intraperitoneal injection of the test compound 15 minutes following, rather than preceding, the cerebral NMDA injection.

| SMILES | IC50 [1] | cell survival compared to control [2] | IC50 [3] | use-dependent blockage of NMDA-induced (+glycine) responses [4] | protection against lesions caused by NMDA injection [5] |
| --- | --- | --- | --- | --- | --- |
| c1ccc2c(c1)CC1NCC2c2ccccc21 (racemic) [(±)-IDDC, (±) 10,5-(iminomethano)-10,11-dihydro-5H-dibenzo[a,d]cycloheptene] | 41 ± 6 nM | enhanced cell survival when compared to control values | 74.6 nM | – | – |
| c1ccc2c(c1)C[C@H]1NC[C@@H]2c2ccccc21 [(+)-IDDC, (+)-10(R),5(S)-(iminomethano)-10,11-dihydro-5H-dibenzo[a,d]cycloheptene] | 40 ± 5 nM | enhanced cell survival when compared to control values | 40 nM | very similar to the use dependent blocking action exhibited by MK-801 | protect against the lesions caused by NMDA injection |

Source: US5688789A, “PCP receptor ligands and the use thereof” (State of Oregon, acting by and through the Oregon State …, priority 1995, dated 1997)
